{"source": "patent US20250144066A1", "about": "“Prevention and Treatment of Parasitic Infections” (priority 2017, published 2025)", "key": {"[1]": {"tested_on": "Adenovirus5 Adenoid75", "test": "Adenovirus 5 CPE inhibition, A549 (ADV-0172)", "format": "cell-based", "details": "A549"}, "[2]": {"tested_on": "A549", "test": "Toxicity in A549 cells (ADV-0172)", "format": "cell-based"}, "[3]": {"tested_on": "HG23", "test": "RNA Hybridization toxicity in HG23 cells (16-21)", "format": "cell-based", "text": "(§1) Secondary testing was done with human norovirus."}, "[4]": {"tested_on": "HG23", "test": "NR toxicity in HG23 cells (17-14)", "format": "cell-based", "details": "NR (Tox)", "text": "as §1"}, "[5]": {"tested_on": "human norovirus (NV, GT1)", "test": "Human norovirus replicon, qPCR, HG23, secondary (17-14)", "format": "cell-based", "text": "as §1"}, "[6]": {"tested_on": "human norovirus (NV, GT1)", "test": "Human norovirus replicon, RNA Hybridization, HG23, primary (16-21)", "format": "cell-based", "details": "RNA Hybridization (Replicon), NV GT1, HG23", "text": "as §1"}, "[7]": {"tested_on": "mouse norovirus (MNV-1)", "test": "Mouse norovirus CPE inhibition (NR), RAW264.7 (17-09)", "format": "cell-based"}, "[8]": {"tested_on": "RAW264.7"}, "[9]": {"tested_on": "Zika Virus", "test": "Zika virus CPE inhibition (Neutral Red), Vero 76, secondary (Zika-094)", "format": "cell-based", "details": "Neutral Red (Cytopathic effect), MR766"}, "[10]": {"test": "Neutral Red toxicity in Huh7 cells, secondary (Zika-094)", "details": "human"}, "[11]": {"tested_on": "Zika Virus", "test": "Zika virus CPE inhibition (Neutral Red), Huh7, secondary (Zika-094)", "format": "cell-based", "details": "Huh-7, Neutral Red (Cytopathic effect), MR766, Huh7, secondary, read-out: EC50"}, "[12]": {"test": "Neutral Red toxicity in Vero 76 cells, secondary (Zika-094)", "details": "monkey, Vero 76 cells"}, "[13]": {"test": "Toxicity in Vero 76 cells, primary screen (Zika-089)", "details": "monkey, Vero 76 cells"}, "[14]": {"tested_on": "Zika Virus", "test": "Zika virus yield reduction (VYR), Huh7, secondary (Zika-094)", "format": "cell-based", "details": "Huh-7, Visual (Virus yield reduction), MR766"}, "[15]": {"tested_on": "Zika Virus", "test": "Zika virus cytopathic effect (CPE) inhibition, Vero 76, primary screen (Zika-089)", "format": "cell-based", "details": "Zika virus, MR766, Vero 76, primary"}, "[16]": {"tested_on": "Zika Virus", "test": "Zika virus yield reduction (VYR), Vero 76, secondary (Zika-094)", "format": "cell-based", "details": "Visual (Virus yield reduction), MR766"}, "[17]": {"test": "Cell Titer-Glo toxicity in C-33A cells (HPV16-15)", "details": "human, C-33A cells"}, "[18]": {"tested_on": "influenza A/California/04/2009 (H1N1pdm)", "test": "Mycophenolate mofetil in influenza-infected mice on standard or low nucleotide diet (Example 19)", "format": "in vivo, C57BL/6 mice", "details": "for Mean Day of Death (MDD) vs placebo: standard diet"}, "[19]": {"tested_on": "Zika Virus", "test": "Zika prevention, virus yield reduction (VYR), Huh7, 4 h pre-incubation (Zika-138)", "format": "cell-based", "details": "Visual (Virus yield reduction); Huh7; pre-incubated 4 hours prior to infection", "description": "(§2) An experiment was carried out as specified in Example 8. In a Zika Prevention Trial, MPA was pre-incubated with human cells 4 hours or 24 hours before Zika virus infection."}, "[20]": {"tested_on": "Zika Virus", "test": "Zika prevention, virus yield reduction (VYR), Vero 76, 4 h pre-incubation (Zika-138)", "format": "cell-based", "details": "Visual (Virus yield reduction), pre-incubated 4 hours prior to infection"}, "[21]": {"tested_on": "Vero 76"}, "[22]": {"tested_on": "Zika Virus", "test": "Zika prevention, virus yield reduction (VYR), Vero 76, 24 h pre-incubation (Zika-138)", "format": "cell-based", "details": "Visual (Virus yield reduction), pre-incubated 24 hours prior to infection"}, "[23]": {"tested_on": "Zika Virus", "test": "Zika prevention, CPE inhibition (Neutral Red), Vero 76, 24 h pre-incubation (Zika-138)", "format": "cell-based", "details": "Neutral Red (Cytopathic effect), pre-incubated 24 hours prior to infection"}, "[24]": {"tested_on": "Zika Virus", "test": "Zika prevention, CPE inhibition (Neutral Red), Huh7, 4 h pre-incubation (Zika-138)", "format": "cell-based", "details": "Neutral Red (Cytopathic effect), pre-incubated 4 hours prior to infection"}, "[25]": {"tested_on": "Zika Virus", "test": "Zika prevention, CPE inhibition (Neutral Red), Huh7, 24 h pre-incubation (Zika-138)", "format": "cell-based", "details": "Neutral Red (Cytopathic effect), pre-incubated 24 hours prior to infection"}, "[26]": {"tested_on": "Zika Virus", "test": "Zika prevention, CPE inhibition (Neutral Red), Vero 76, 4 h pre-incubation (Zika-138)", "format": "cell-based", "details": "Neutral Red (Cytopathic effect), pre-incubated 4 hours prior to infection"}, "[27]": {"tested_on": "Vero 76", "remark": "listed apart in the source"}, "[28]": {"tested_on": "Zika Virus", "test": "Zika prevention, virus yield reduction (VYR), Huh7, 24 h pre-incubation (Zika-138)", "format": "cell-based", "details": "Visual (Virus yield reduction); Huh7; pre-incubated 24 hours prior to infection", "description": "as §2"}, "[29]": {"tested_on": "influenza A/California/04/2009 (H1N1pdm)", "test": "Oseltamivir with control or low guanosine diet in influenza-infected mice (Example 15)", "format": "in vivo, C57BL/6 mice", "details": "oseltamivir IP, BID for five days from four hours pre-infection"}, "[30]": {"test": "in vitro", "details": "African green monkey"}, "[31]": {"tested_on": "Respiratory syncytial virus A2", "test": "microbe, parasite or virus in culture", "format": "cell-based"}, "[32]": {"tested_on": "Lassa fever virus Josiah", "test": "organism not typed", "format": "cell-based", "details": "Vero"}, "[33]": {"test": "in vitro", "details": "African green monkey", "remark": "listed apart in the source"}, "[34]": {"test": "in vitro", "details": "dog"}, "[35]": {"tested_on": "Rift Valley fever virus MP-12", "test": "microbe, parasite or virus in culture", "format": "cell-based"}, "[36]": {"tested_on": "Influenza A virus H1N1 California/07/2009", "test": "microbe, parasite or virus in culture", "format": "cell-based"}}, "note": "Entries after “also recorded” stand apart in the source; their conditions may differ. Where two headings read alike, the source gives them in different places.", "data": [{"smiles": "Nc1ccn([C@H]2CC[C@@H](CO)O2)c(=O)n1", "note": "[2,3-Dideoxycytidine]", "values": [{"measurement": "EC50", "setting": "[1]; Neutral Red (Cytopathic effect)", "value": 3.2, "unit": "µg/mL"}, {"measurement": "EC50", "setting": "[1]; Visual (Cytopathic effect)", "value": 3.2, "unit": "µg/mL"}, {"measurement": "CC50", "setting": "[2]; Neutral Red (Toxicity)", "value": ">100", "unit": "µg/mL"}, {"measurement": "CC50", "setting": "[2]; Visual (Toxicity)", "value": ">100", "unit": "µg/mL"}]}, {"smiles": "C[C@@]1(O)[C@H](O)[C@@H](CO)O[C@H]1n1ccc(N)nc1=O", "note": "[2′C-methyl cytidine]", "values": [{"measurement": "CC50", "setting": "[3]", "value": "> 300", "unit": "µM"}, {"measurement": "CC50", "setting": "[4]", "value": "> 300", "unit": "µM"}, {"measurement": "EC50", "setting": "[5]", "value": 6, "unit": "µM"}, {"measurement": "EC90", "setting": "[5]", "value": 18, "unit": "µM"}, {"measurement": "EC50", "setting": "[6]; read-out: EC50", "value": 6.6, "unit": "µM"}, {"measurement": "EC90", "setting": "[6]; read-out: EC90", "value": 17, "unit": "µM"}, {"measurement": "EC50", "setting": "[7]", "value": 1, "unit": "µM"}, {"measurement": "EC90", "setting": "[7]", "value": 3.2, "unit": "µM"}, {"measurement": "CC50", "setting": "[8]", "value": 51, "unit": "µM"}]}, {"smiles": "O=c1cnn([C@@H]2O[C@H](CO)[C@@H](O)[C@H]2O)c(=O)[nH]1", "note": "[6-Azauridine]", "values": [{"measurement": "EC50", "setting": "[9]", "value": 0.37, "unit": "µg/mL"}, {"measurement": "CC50", "setting": "[10]", "value": "> 100", "unit": "µg/mL"}, {"measurement": "EC50", "setting": "[11]", "value": 1.2, "unit": "µg/mL"}, {"measurement": "CC50", "setting": "[12]", "value": 9.9, "unit": "µg/mL"}, {"measurement": "CC50", "setting": "[13]; CC50, Neutral Red (Toxicity)", "value": 83.3, "unit": "µg/mL"}, {"measurement": "CC50", "setting": "[13]; CC50, Visual (Toxicity)", "value": "> 100", "unit": "µg/mL"}, {"measurement": "EC90", "setting": "[14]", "value": 27.4, "unit": "µg/mL"}, {"measurement": "EC50", "setting": "[15]; Vero 76, Neutral Red (Cytopathic effect)", "value": 0.35, "unit": "µg/mL"}, {"measurement": "EC50", "setting": "[15]; Vero 76, Visual (Cytopathic effect)", "value": 0.32, "unit": "µg/mL"}, {"measurement": "EC90", "setting": "[16]", "value": 1.3, "unit": "µg/mL"}]}, {"smiles": "Nc1nc2c(ncn2CCOCP(=O)(O)O)c(=O)[nH]1", "note": "[9-[2-(phosphonomethoxy)ethyl]guanine]", "values": [{"measurement": "CC50", "setting": "[17]", "value": 141, "unit": "µM"}]}, {"smiles": "COc1c(C)c2c(c(O)c1C/C=C(\\C)CCC(=O)OCCN1CCOCC1)C(=O)OC2", "note": "[MMF, 2-morpholinoethyl ester of mycophenolic acid]", "values": [{"measurement": "protection (survival) vs placebo", "setting": "[18]; low nucleotide diet, MMF 4 mg/kg/day bid for 6 days beginning 4 h pre-infection", "value": "significant (P<0.05) protection; also recorded: improved survival outcome"}, {"measurement": "Mean Day of Death (MDD) vs placebo", "setting": "[18]; MMF 4 mg/kg/day PO bid for 6 days", "value": "significantly (P<0.05) increased"}, {"measurement": "Mean Day of Death (MDD) vs placebo", "setting": "[18]; MMF 40 mg/kg/day PO bid for 6 days", "value": "significantly (P<0.05) increased"}]}, {"smiles": "C#C[C@@]1(O)[C@H](O)[C@@H](CO)O[C@H]1n1ccc2c(N)ncnc21", "note": "[NITD008]", "values": [{"measurement": "EC90", "setting": "[19]", "value": 0.61, "unit": "µg/mL"}, {"measurement": "EC90", "setting": "[20]", "value": 7.81, "unit": "µg/mL"}, {"measurement": "CC50", "setting": "[21]", "value": ">100", "unit": "µg/mL"}, {"measurement": "EC90", "setting": "[22]", "value": 31.62, "unit": "µg/mL"}, {"measurement": "EC50", "setting": "[23]", "value": 5.1, "unit": "µg/mL"}, {"measurement": "EC50", "setting": "[24]", "value": 1.1, "unit": "µg/mL"}, {"measurement": "EC50", "setting": "[25]", "value": 0.77, "unit": "µg/mL"}, {"measurement": "EC50", "setting": "[26]", "value": 8.3, "unit": "µg/mL"}, {"measurement": "CC50", "setting": "[27]", "value": ">100", "unit": "µg/mL"}, {"measurement": "EC90", "setting": "[28]", "value": 1.0, "unit": "µg/mL"}]}, {"smiles": "CCOC(=O)C1=C[C@@H](OC(CC)CC)[C@H](NC(C)=O)[C@@H](N)C1", "note": "[Oseltamivir, oseltamivir]", "values": [{"measurement": "survival at 21 days post-infection", "setting": "[29]; Group A, control diet (Harlan mouse lab diet)", "value": 40, "unit": "%"}, {"measurement": "survival at 21 days post-infection", "setting": "[29]; Group B, low guanosine diet (Purina Mills #5755)", "value": 100, "unit": "%"}]}, {"smiles": "NC(=O)c1ncn([C@@H]2O[C@H](CO)[C@@H](O)[C@H]2O)n1", "note": "[Ribavirin]", "values": [{"measurement": "CC50", "setting": "[30]", "value": "> 1000", "unit": "µg/mL"}, {"measurement": "EC50", "setting": "[31]", "value": 12, "unit": "µg/mL"}, {"measurement": "EC50", "setting": "[31]; human respiratory syncytial virus, MA104", "value": 7.6, "unit": "µg/mL"}, {"measurement": "EC50", "setting": "[32]", "value": 32, "unit": "µM"}, {"measurement": "CC50", "setting": "[33]", "value": "> 100", "unit": "µM"}, {"measurement": "CC50", "setting": "[34]", "value": "> 320", "unit": "µM"}, {"measurement": "EC50", "setting": "[35]", "value": 12, "unit": "µg/mL"}, {"measurement": "EC50", "setting": "[35]; Rift Valley fever virus, Vero 76", "value": 11, "unit": "µg/mL"}, {"measurement": "EC50", "setting": "[36]", "value": 4.1, "unit": "µM"}, {"measurement": "EC50", "setting": "[36]; Influenza A virus, H1N1, MDCK", "value": 3.7, "unit": "µM"}]}]}
